Assay results as given in ChEMBL document CHEMBL1201862, “PubChem BioAssay data set” (2004).
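All cell lines were grown in 96-well plates and treated with compound for 48 hours. At the GI50, growth is halved.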 Calls of active or inactive are those of the source. Cut-off read from the data, not from the text of the source: active = GI50 up to about 1.1 µM and inactive = higher.

Experiments:
Test in all cases: NCI-60 cell line screen, 48 h
[1] = tested on: MCF7
[2] = tested on: HT-29
[3] = tested on: MOLT-4
[4] = tested on: HL-60
[5] = tested on: OVCAR-4
[6] = tested on: OVCAR-8
[7] = tested on: NCI-H23
[8] = tested on: NCI-H460
[9] = tested on: NCI/ADR-RES
[10] = tested on: OVCAR-3
[11] = tested on: MDA-MB-231
[12] = tested on: RPMI-8226
[13] = tested on: BT-549
[14] = tested on: LOX IMVI
[15] = tested on: A498
[16] = tested on: T47D
[17] = tested on: SN12C
[18] = tested on: SF-268
[19] = tested on: SR

Compound	GI50 [1]	GI50 [2]	GI50 [3]	GI50 [4]	GI50 [5]	GI50 [6]	GI50 [7]	GI50 [8]	GI50 [9]	GI50 [10]	GI50 [11]	GI50 [12]	GI50 [13]	GI50 [14]	GI50 [15]	GI50 [16]	GI50 [17]	GI50 [18]	GI50 [19]
CC(=O)Nc1ccc(-c2nc3ccccc3s2)cc1I	0.0463 µM (active)	> 65.6 µM (inactive)	> 100 µM (inactive)	> 100 µM (inactive)	8.79 µM (inactive)	18.5 µM (inactive)	18 µM (inactive)	49.4 µM (inactive)	42.3 µM (inactive)	11.7 µM (inactive)	17.5 µM (inactive)	> 100 µM (inactive)	25.5 µM (inactive)	24.8 µM (inactive)	6.5 µM (inactive)	1.85 µM (inactive)	36.6 µM (inactive)	33.4 µM (inactive)	> 100 µM (inactive)
COC(=O)c1ccc(CCc2cc(O)ccc2O)cc1	7.5 µM (inactive)	28.4 µM (inactive)	1.77 µM (inactive)	0.959 µM (active)	10.8 µM (inactive)	2.85 µM (inactive)	13.6 µM (inactive)	37 µM (inactive)	12.8 µM (inactive)	2.96 µM (inactive)	10.1 µM (inactive)	0.847 µM (active)	5.7 µM (inactive)	6.12 µM (inactive)	37.6 µM (inactive)	2.6 µM (inactive)	7.98 µM (inactive)	5.68 µM (inactive)	2.44 µM (inactive)
c1ccc([P+](CC[P+](c2ccccc2)(c2ccccc2)c2ccccc2)(c2ccccc2)c2ccccc2)cc1	32.1 µM (inactive)	23.4 µM (inactive)	12.6 µM (inactive)	0.396 µM (active)	34.3 µM (inactive)	4.82 µM (inactive)	26.3 µM (inactive)	5.79 µM (inactive)	61.4 µM (inactive)	13 µM (inactive)	38.6 µM (inactive)	0.693 µM (active)	42.3 µM (inactive)	63 µM (inactive)	5.87 µM (inactive)	4.34 µM (inactive)	9.31 µM (inactive)	6.05 µM (inactive)	14.7 µM (inactive)
CCOC(=O)CCc1ccc(NC(=O)/C=C/c2ccc([N+](=O)[O-])o2)cc1	0.426 µM (active)	0.925 µM (active)	0.22 µM (active)	0.166 µM (active)	3.94 µM (inactive)	0.681 µM (active)	0.863 µM (active)	2.34 µM (inactive)	1.78 µM (inactive)	0.61 µM (active)	1.8 µM (inactive)	0.286 µM (active)	2.66 µM (inactive)	0.356 µM (active)	3.14 µM (inactive)	3.24 µM (inactive)	1.43 µM (inactive)	1.12 µM (inactive)	0.155 µM (active)
COc1ccc(N2C(=O)C3c4[nH]c5ccc(OCc6ccccc6)cc5c4C4CCC(C(C)C)CC4C3C2=O)cc1 (centres undefined)	99.1 µM (inactive)	> 100 µM (inactive)	18.2 µM (inactive)	1.78 µM (inactive)	19.4 µM (inactive)	15.6 µM (inactive)	17.4 µM (inactive)	13.9 µM (inactive)	30.2 µM (inactive)	> 58.5 µM (inactive)	10.5 µM (inactive)	> 72.6 µM (inactive)	28.6 µM (inactive)	80.5 µM (inactive)	5.71 µM (inactive)	33.2 µM (inactive)	> 100 µM (inactive)	17.2 µM (inactive)	4.41 µM (inactive)
CCC(=O)N/S(=N/S(=O)(=O)c1ccccc1)C(Cl)(Cl)Cl (centres undefined)	> 100 µM (inactive)	> 100 µM (inactive)	> 100 µM (inactive)	> 100 µM (inactive)	> 100 µM (inactive)	> 100 µM (inactive)	> 100 µM (inactive)	> 100 µM (inactive)	> 100 µM (inactive)	> 100 µM (inactive)	> 100 µM (inactive)	> 100 µM (inactive)	> 100 µM (inactive)	> 100 µM (inactive)	> 100 µM (inactive)	> 100 µM (inactive)	> 100 µM (inactive)	> 100 µM (inactive)	> 100 µM (inactive)
CCOC(=O)C1=C(C)N(c2ccc(Cl)cc2)C2(O)C=CC(=O)C3C(=O)N(c4ccccc4)C(=O)C132 (centres undefined)	1.62 µM (inactive)	1.82 µM (inactive)	1.6 µM (inactive)	2.76 µM (inactive)	1.54 µM (inactive)	2.12 µM (inactive)	1.93 µM (inactive)	2.3 µM (inactive)	2.36 µM (inactive)	1.28 µM (inactive)	2.09 µM (inactive)	1.07 µM (active)	2.25 µM (inactive)	1.36 µM (inactive)	1.56 µM (inactive)	2.3 µM (inactive)	2.3 µM (inactive)	1.76 µM (inactive)	0.292 µM (active)
O=c1cc(-c2ccccc2)c2ccc(O)c(CN(CCCl)CCCl)c2o1	17.2 µM (inactive)	10.3 µM (inactive)	5.75 µM (inactive)	13.4 µM (inactive)	34.8 µM (inactive)	15.8 µM (inactive)	19.5 µM (inactive)	17.8 µM (inactive)	32.3 µM (inactive)	19.3 µM (inactive)	15.7 µM (inactive)	12.6 µM (inactive)	10.6 µM (inactive)	8.26 µM (inactive)	19.1 µM (inactive)	23.4 µM (inactive)	17.2 µM (inactive)	17.5 µM (inactive)	11.1 µM (inactive)
CC1=NN(C(=O)c2ccccc2O)C(c2ccccc2Cl)C1C(=O)Nc1ccccc1 (centres undefined)	0.0387 µM (active)	2.96 µM (inactive)	< 0.0302 µM (active)	0.161 µM (active)	0.098 µM (active)	0.0986 µM (active)	< 0.0378 µM (active)	0.0964 µM (active)	0.0458 µM (active)	0.143 µM (active)	0.647 µM (active)	0.0726 µM (active)	< 0.0256 µM (active)	0.0728 µM (active)	< 0.01 µM (active)	0.0435 µM (active)	0.0224 µM (active)	< 0.01 µM (active)	< 0.0322 µM (active)
CCSC(=O)/C=C1\CN(C(=O)OC(C)(C)C)C1C(=O)OC(C)(C)C (centres undefined)	2.38 µM (inactive)	4.23 µM (inactive)	1.71 µM (inactive)	1.87 µM (inactive)	2.38 µM (inactive)	2.91 µM (inactive)	2.6 µM (inactive)	7.14 µM (inactive)	2.74 µM (inactive)	2.42 µM (inactive)	4.29 µM (inactive)	1.87 µM (inactive)	10.3 µM (inactive)	1.45 µM (inactive)	11.2 µM (inactive)	4.34 µM (inactive)	1.86 µM (inactive)	4.32 µM (inactive)	0.684 µM (active)
CC(=C(C(=O)O)C(=O)O)c1cc(-c2cccs2)cc(-c2ccc(Cl)cc2)c1O	5.47 µM (inactive)	17.3 µM (inactive)	6.41 µM (inactive)	9.71 µM (inactive)	26.7 µM (inactive)	19.2 µM (inactive)	17.3 µM (inactive)	17.1 µM (inactive)	20.3 µM (inactive)	14.9 µM (inactive)	18.2 µM (inactive)	2.78 µM (inactive)	15.7 µM (inactive)	13.2 µM (inactive)	16 µM (inactive)	6.68 µM (inactive)	15.9 µM (inactive)	17.9 µM (inactive)	3.67 µM (inactive)
